The values below come from article PMC11558128 (Advanced Science, 2024).

Read-outs that look alike come from different tables or passages of the source. Positions of bridges follow the written chain, without caps; N, C: chain ends. Residues, ends and D or L forms follow the SMILES beside them.

One assay deals with T1, hNav1.7 (Homo sapiens, UniProt Q15858).
T1 construct: expressed in transfected cells; host or cells: HEK293T
Briefly: cell-based. The settings on record: whole-cell patch clamp, HEK293T, mean ± SEM, this study, read-out: IC50 on hNav1.7. (In general: The patch-clamp technique gives a direct electrical read-out from membranes.)

For a further assay, the target named is T2, rKv4.2 (Rattus norvegicus, UniProt Q63881).
T2 construct: expressed in transfected cells; host or cells: HEK293T
T2 sequence (Q63881 1-630): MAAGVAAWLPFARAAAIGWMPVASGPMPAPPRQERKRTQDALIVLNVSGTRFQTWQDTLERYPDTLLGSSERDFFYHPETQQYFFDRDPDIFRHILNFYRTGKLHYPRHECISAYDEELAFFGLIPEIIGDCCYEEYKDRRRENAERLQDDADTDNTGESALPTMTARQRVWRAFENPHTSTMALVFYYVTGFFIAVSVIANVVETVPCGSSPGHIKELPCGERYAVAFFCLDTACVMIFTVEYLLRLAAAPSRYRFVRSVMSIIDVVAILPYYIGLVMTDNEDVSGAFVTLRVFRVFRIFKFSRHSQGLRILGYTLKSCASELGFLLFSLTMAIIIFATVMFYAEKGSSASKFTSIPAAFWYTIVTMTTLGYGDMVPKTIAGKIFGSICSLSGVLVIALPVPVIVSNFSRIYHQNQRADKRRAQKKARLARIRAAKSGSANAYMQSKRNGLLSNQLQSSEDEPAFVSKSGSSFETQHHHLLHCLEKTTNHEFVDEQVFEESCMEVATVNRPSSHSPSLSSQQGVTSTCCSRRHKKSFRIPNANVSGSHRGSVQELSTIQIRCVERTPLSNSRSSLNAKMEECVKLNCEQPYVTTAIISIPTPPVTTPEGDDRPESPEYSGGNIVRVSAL
The experiment in a line: cell-based. Particulars: for IC50: whole-cell patch clamp, HEK293T, mean ± SEM, n = 3-8, read-out: IC50 on rKv4.2 WT.

T1 sequence (O60939 30-215): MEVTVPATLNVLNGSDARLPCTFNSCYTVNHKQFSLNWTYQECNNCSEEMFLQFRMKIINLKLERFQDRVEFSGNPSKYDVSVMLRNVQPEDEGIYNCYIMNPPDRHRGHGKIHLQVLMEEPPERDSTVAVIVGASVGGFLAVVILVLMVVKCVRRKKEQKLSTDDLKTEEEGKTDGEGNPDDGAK
T1 sequence (Q15858 other isoform, or with tags, fused parts or gaps): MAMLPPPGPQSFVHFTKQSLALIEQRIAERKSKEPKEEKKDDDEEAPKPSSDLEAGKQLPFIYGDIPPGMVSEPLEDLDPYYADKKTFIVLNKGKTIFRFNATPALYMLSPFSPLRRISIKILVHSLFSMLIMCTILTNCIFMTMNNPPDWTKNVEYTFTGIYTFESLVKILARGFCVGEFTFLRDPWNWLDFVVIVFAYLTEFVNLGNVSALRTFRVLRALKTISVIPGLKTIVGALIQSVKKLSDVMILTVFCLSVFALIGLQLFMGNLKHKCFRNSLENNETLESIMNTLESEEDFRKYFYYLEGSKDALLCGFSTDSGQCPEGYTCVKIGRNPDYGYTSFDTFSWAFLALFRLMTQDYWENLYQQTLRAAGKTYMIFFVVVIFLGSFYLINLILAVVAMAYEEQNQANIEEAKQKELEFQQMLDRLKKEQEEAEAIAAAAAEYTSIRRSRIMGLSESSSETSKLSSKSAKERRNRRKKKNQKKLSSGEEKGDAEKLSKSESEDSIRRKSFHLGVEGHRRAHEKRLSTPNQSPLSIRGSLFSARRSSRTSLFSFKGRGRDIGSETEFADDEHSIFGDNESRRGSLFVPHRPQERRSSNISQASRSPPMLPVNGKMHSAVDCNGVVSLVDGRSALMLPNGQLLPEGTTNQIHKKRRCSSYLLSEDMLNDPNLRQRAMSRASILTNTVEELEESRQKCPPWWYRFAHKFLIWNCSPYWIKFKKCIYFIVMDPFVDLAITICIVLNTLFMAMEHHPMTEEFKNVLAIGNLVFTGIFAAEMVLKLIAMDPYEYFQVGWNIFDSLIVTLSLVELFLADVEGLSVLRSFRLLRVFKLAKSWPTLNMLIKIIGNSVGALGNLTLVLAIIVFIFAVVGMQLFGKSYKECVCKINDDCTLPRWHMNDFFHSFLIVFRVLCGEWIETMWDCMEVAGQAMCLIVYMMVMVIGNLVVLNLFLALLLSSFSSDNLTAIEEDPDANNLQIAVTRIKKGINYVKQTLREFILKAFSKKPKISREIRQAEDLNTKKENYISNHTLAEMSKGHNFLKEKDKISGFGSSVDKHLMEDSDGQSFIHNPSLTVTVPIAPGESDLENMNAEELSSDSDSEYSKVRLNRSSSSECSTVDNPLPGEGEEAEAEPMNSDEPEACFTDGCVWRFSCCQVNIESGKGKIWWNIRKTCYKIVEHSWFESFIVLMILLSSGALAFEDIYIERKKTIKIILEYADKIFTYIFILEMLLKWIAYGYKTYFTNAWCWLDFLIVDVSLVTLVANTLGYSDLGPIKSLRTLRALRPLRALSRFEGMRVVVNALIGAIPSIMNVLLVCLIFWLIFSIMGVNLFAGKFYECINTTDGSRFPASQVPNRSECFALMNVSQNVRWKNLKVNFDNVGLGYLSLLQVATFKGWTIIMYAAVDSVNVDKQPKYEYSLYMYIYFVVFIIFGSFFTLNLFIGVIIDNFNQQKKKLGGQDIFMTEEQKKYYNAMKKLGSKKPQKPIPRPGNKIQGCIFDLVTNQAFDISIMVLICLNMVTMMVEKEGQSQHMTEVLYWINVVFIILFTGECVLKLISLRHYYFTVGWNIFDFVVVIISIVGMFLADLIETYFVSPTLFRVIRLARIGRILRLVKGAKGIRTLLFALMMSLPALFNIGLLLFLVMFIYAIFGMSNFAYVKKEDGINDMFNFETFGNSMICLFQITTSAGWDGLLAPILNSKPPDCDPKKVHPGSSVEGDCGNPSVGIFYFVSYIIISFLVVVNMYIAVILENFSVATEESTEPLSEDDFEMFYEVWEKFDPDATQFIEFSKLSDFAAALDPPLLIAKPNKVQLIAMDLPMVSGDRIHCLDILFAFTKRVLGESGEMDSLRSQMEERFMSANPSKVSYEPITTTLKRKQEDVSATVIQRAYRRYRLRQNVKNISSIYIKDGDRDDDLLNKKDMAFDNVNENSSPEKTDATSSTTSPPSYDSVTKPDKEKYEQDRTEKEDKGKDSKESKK
T1 sequence (Q07699 19-218, further chain): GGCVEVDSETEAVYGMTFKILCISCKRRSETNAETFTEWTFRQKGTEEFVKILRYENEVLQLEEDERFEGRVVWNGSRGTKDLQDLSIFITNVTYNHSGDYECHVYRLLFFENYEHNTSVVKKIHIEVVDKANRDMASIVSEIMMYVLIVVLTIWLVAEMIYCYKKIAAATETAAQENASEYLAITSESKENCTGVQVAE

Usually IC50 stands for the midpoint of a concentration-inhibition curve. Take `CC(C)C[C@H](NC(=O)[C@H](Cc1ccc(O)cc1)NC(=O)[C@@H](NC(=O)[C@H](CCCCN)NC(=O)[C@@H]1CSSC[C@@H]2NC(=O)[C@H](CCC(=O)O)NC(=O)[C@H](CC(N)=O)NC(=O)[C@H](CCCCN)NC(=O)CNC(=O)[C@@H]3CCCN3C(=O)[C@H]([C@@H](C)O)NC(=O)[C@@H]3CSSC[C@H](NC(=O)[C@H](C)NC(=O)[C@H](Cc4ccc(O)cc4)NC(=O)[C@H](CC(N)=O)NC(=O)[C@@H]4CCCN4C(=O)[C@H](CSSC[C@H](NC(=O)CN)C(=O)N[C@@H](CCCCN)C(=O)NCC(=O)N[C@@H](Cc4ccccc4)C(=O)NCC(=O)N[C@@H](CC(=O)O)C(=O)N[C@@H](CO)C(=O)N3)NC2=O)C(=O)N[C@@H](CO)C(=O)N[C@@H](CO)C(=O)N[C@@H](C)C(=O)N[C@@H](Cc2c[nH]cn2)C(=O)N[C@@H](CCCCN)C(=O)N[C@@H](Cc2c[nH]c3ccccc23)C(=O)N1)C(C)C)C(N)=O` [K25A] (H-GCKGFGDSCTPGKNECCPNYACSSAHKWCKVYL-NH2; disulfide 2-17, 9-22, 16-29): the IC50 at hNav1.7 (SEM) was 2 ± 0.332 µM; at rKv4.2, over 20 µM.
Regarding `CC(C)[C@H](NC(=O)[C@H](CCCCN)NC(=O)[C@@H]1CSSC[C@@H]2NC(=O)[C@H](CCC(=O)O)NC(=O)[C@H](CC(N)=O)NC(=O)[C@H](CCCCN)NC(=O)CNC(=O)[C@@H]3CCCN3C(=O)[C@H]([C@@H](C)O)NC(=O)[C@@H]3CSSC[C@H](NC(=O)[C@H](C)NC(=O)[C@H](Cc4ccc(O)cc4)NC(=O)[C@H](CC(N)=O)NC(=O)[C@@H]4CCCN4C(=O)[C@H](CSSC[C@H](NC(=O)CN)C(=O)N[C@@H](CCCCN)C(=O)NCC(=O)N[C@@H](Cc4ccccc4)C(=O)NCC(=O)N[C@@H](CC(=O)O)C(=O)N[C@@H](CO)C(=O)N3)NC2=O)C(=O)N[C@@H](CO)C(=O)N[C@@H](CO)C(=O)N[C@@H](CCCCN)C(=O)N[C@@H](Cc2c[nH]cn2)C(=O)N[C@@H](CCCCN)C(=O)N[C@@H](Cc2c[nH]c3ccccc23)C(=O)N1)C(=O)N[C@@H](Cc1ccc(O)cc1)C(=O)N[C@@H](CCCCN)C(N)=O` [L33K] (H-GCKGFGDSCTPGKNECCPNYACSSKHKWCKVYK-NH2; disulfide 2-17, 9-22, 16-29), the concentration for half-maximal inhibition (IC50) at hNav1.7 was over 10 µM; on rKv4.2 (SEM) it was 20 ± 4 µM.
`CC(C)C[C@H](NC(=O)[C@H](Cc1ccc(O)cc1)NC(=O)[C@@H](NC(=O)[C@H](CCCCN)NC(=O)[C@@H]1CSSC[C@@H]2NC(=O)[C@H](CCC(=O)O)NC(=O)[C@H](CC(N)=O)NC(=O)[C@H](CCCCN)NC(=O)CNC(=O)[C@@H]3CCCN3C(=O)[C@H]([C@@H](C)O)NC(=O)[C@@H]3CSSC[C@H](NC(=O)[C@H](C)NC(=O)[C@H](Cc4ccc(O)cc4)NC(=O)[C@H](C)NC(=O)[C@@H]4CCCN4C(=O)[C@H](CSSC[C@H](NC(=O)CN)C(=O)N[C@@H](CCCCN)C(=O)NCC(=O)N[C@@H](Cc4ccccc4)C(=O)NCC(=O)N[C@@H](CC(=O)O)C(=O)N[C@@H](CO)C(=O)N3)NC2=O)C(=O)N[C@@H](CO)C(=O)N[C@@H](CO)C(=O)N[C@@H](CCCCN)C(=O)N[C@@H](Cc2c[nH]cn2)C(=O)N[C@@H](CCCCN)C(=O)N[C@@H](Cc2c[nH]c3ccccc23)C(=O)N1)C(C)C)C(N)=O` [N19A] (H-GCKGFGDSCTPGKNECCPAYACSSKHKWCKVYL-NH2; disulfide 2-17, 9-22, 16-29): the IC50 was determined as 0.116 ± 0.009 µM on hNav1.7 (SEM) and 0.064 ± 0.009 µM on rKv4.2 (SEM).
Turning to `CC(C)C[C@H](NC(=O)[C@H](Cc1ccc(O)cc1)NC(=O)[C@@H](NC(=O)[C@H](CCCCN)NC(=O)[C@@H]1CSSC[C@@H]2NC(=O)[C@H](CCC(=O)O)NC(=O)[C@H](CC(N)=O)NC(=O)[C@H](CCCCN)NC(=O)CNC(=O)[C@@H]3CCCN3C(=O)[C@H](CCC(=O)O)NC(=O)[C@@H]3CSSC[C@H](NC(=O)[C@H](C)NC(=O)[C@H](Cc4ccc(O)cc4)NC(=O)[C@H](CC(N)=O)NC(=O)[C@@H]4CCCN4C(=O)[C@H](CSSC[C@H](NC(=O)CN)C(=O)N[C@@H](CCCCN)C(=O)NCC(=O)N[C@@H](Cc4ccccc4)C(=O)NCC(=O)N[C@@H](CC(=O)O)C(=O)N[C@@H](CO)C(=O)N3)NC2=O)C(=O)N[C@@H](CO)C(=O)N[C@@H](CO)C(=O)N[C@@H](CCCCN)C(=O)N[C@@H](Cc2c[nH]cn2)C(=O)N[C@@H](CCCCN)C(=O)N[C@@H](Cc2c[nH]c3ccccc23)C(=O)N1)C(C)C)C(N)=O` [T10E] (H-GCKGFGDSCEPGKNECCPNYACSSKHKWCKVYL-NH2; disulfide 2-17, 9-22, 16-29), the IC50 on rKv4.2 (SEM) was 0.452 ± 0.221 µM.
As for `CC(C)C[C@H](NC(=O)[C@H](Cc1ccc(O)cc1)NC(=O)[C@@H](NC(=O)[C@H](CCCCN)NC(=O)[C@@H]1CSSC[C@@H]2NC(=O)[C@H](CCC(=O)O)NC(=O)[C@H](CC(N)=O)NC(=O)[C@H](CCCCN)NC(=O)CNC(=O)[C@@H]3CCCN3C(=O)[C@H]([C@@H](C)O)NC(=O)[C@@H]3CSSC[C@H](NC(=O)[C@H](C)NC(=O)[C@H](Cc4ccc(O)cc4)NC(=O)[C@H](CC(N)=O)NC(=O)[C@@H]4CCCN4C(=O)[C@H](CSSC[C@H](NC(=O)CN)C(=O)N[C@@H](CCCCN)C(=O)NCC(=O)N[C@@H](Cc4ccccc4)C(=O)NCC(=O)N[C@@H](CC(=O)O)C(=O)N[C@@H](CO)C(=O)N3)NC2=O)C(=O)N[C@@H](CO)C(=O)N[C@@H](CO)C(=O)N[C@@H](CCCCN)C(=O)N[C@@H](Cc2c[nH]cn2)C(=O)N[C@@H](CCCCN)C(=O)N[C@@H](C)C(=O)N1)C(C)C)C(N)=O` [W28A] (H-GCKGFGDSCTPGKNECCPNYACSSKHKACKVYL-NH2; disulfide 2-17, 9-22, 16-29; N-terminus and C-terminus assumed), at rKv4.2 (analogue compared with its parent toxin), the “inhibition of rKv4.2, in words” value is given as “dramatically decreased inhibition”.
As for `CC(C)C[C@H](NC(=O)[C@H](Cc1ccc(O)cc1)NC(=O)[C@@H](NC(=O)[C@H](CCCCN)NC(=O)[C@@H]1CSSC[C@@H]2NC(=O)[C@H](CCC(=O)O)NC(=O)[C@H](CC(N)=O)NC(=O)[C@H](CCCCN)NC(=O)CNC(=O)[C@@H]3CCCN3C(=O)[C@H]([C@@H](C)O)NC(=O)[C@@H]3CSSC[C@H](NC(=O)[C@H](C)NC(=O)[C@H](C)NC(=O)[C@H](CC(N)=O)NC(=O)[C@@H]4CCCN4C(=O)[C@H](CSSC[C@H](NC(=O)CN)C(=O)N[C@@H](CCCCN)C(=O)NCC(=O)N[C@@H](Cc4ccccc4)C(=O)NCC(=O)N[C@@H](CC(=O)O)C(=O)N[C@@H](CO)C(=O)N3)NC2=O)C(=O)N[C@@H](CO)C(=O)N[C@@H](CO)C(=O)N[C@@H](CCCCN)C(=O)N[C@@H](Cc2c[nH]cn2)C(=O)N[C@@H](CCCCN)C(=O)N[C@@H](Cc2c[nH]c3ccccc23)C(=O)N1)C(C)C)C(N)=O` [Y20A] (H-GCKGFGDSCTPGKNECCPNAACSSKHKWCKVYL-NH2; disulfide 2-17, 9-22, 16-29), the concentration for half-maximal inhibition (IC50) at hNav1.7 (SEM) came out at 7.16 ± 0.528 µM; on rKv4.2 (SEM), 4 ± 2 µM.
As for `CC(C)C[C@H](NC(=O)[C@H](Cc1ccc(O)cc1)NC(=O)[C@@H](NC(=O)[C@H](CCCCN)NC(=O)[C@@H]1CSSC[C@@H]2NC(=O)[C@H](CCC(=O)O)NC(=O)[C@H](CC(N)=O)NC(=O)[C@H](CCCCN)NC(=O)CNC(=O)[C@@H]3CCCN3C(=O)[C@H]([C@@H](C)O)NC(=O)[C@@H]3CSSC[C@H](NC(=O)[C@H](C)NC(=O)[C@H](Cc4c[nH]c5ccccc45)NC(=O)[C@H](CC(N)=O)NC(=O)[C@@H]4CCCN4C(=O)[C@H](CSSC[C@H](NC(=O)CN)C(=O)N[C@@H](CCCCN)C(=O)NCC(=O)N[C@@H](Cc4ccccc4)C(=O)NCC(=O)N[C@@H](CC(=O)O)C(=O)N[C@@H](CO)C(=O)N3)NC2=O)C(=O)N[C@@H](CO)C(=O)N[C@@H](CO)C(=O)N[C@@H](CCCCN)C(=O)N[C@@H](Cc2c[nH]cn2)C(=O)N[C@@H](CCCCN)C(=O)N[C@@H](Cc2c[nH]c3ccccc23)C(=O)N1)C(C)C)C(N)=O` [Y20W] (H-GCKGFGDSCTPGKNECCPNWACSSKHKWCKVYL-NH2; disulfide 2-17, 9-22, 16-29), the results for the IC50 on hNav1.7 (SEM) and at rKv4.2 (SEM) were 0.495 ± 0.039 µM and 0.228 ± 0.033 µM, respectively.
